Data reported in ChEMBL document CHEMBL4190267, “Discovery of potent molecular chimera (CM358) to treat human metastatic melanoma” (Eur J Med Chem, 2017).
Active and inactive are the calls of the source. No cut-off for these calls is given here.

Assays:
[1] = test system: PC-3; test: Growth inhibition of human PC3 cells preincubated for 6 hrs followed compound washout measured after 24 hrs by XTT assay; format: functional
[2] = test system: MDA-MB-231; test: Growth inhibition of human MDA-MB-231 cells preincubated for 6 hrs followed compound washout measured after 24 hrs by XTT assay; format: functional
[3] = test system: WM 266-4; test: Growth inhibition of human WM266.4 cells preincubated for 6 hrs followed compound washout measured after 24 hrs by XTT assay; format: functional
[4] = test system: A 172; test: Growth inhibition of human A172 cells preincubated for 6 hrs followed compound washout measured after 24 hrs by XTT assay; format: functional
[5] = test system: NCI-H1299; test: Growth inhibition of human NCI-H1299 cells preincubated for 6 hrs followed compound washout measured after 24 hrs by XTT assay; format: functional
[6] = test system: WM 266-4; test: Growth inhibition of human WM266.4 cells at 1 uM incubated up to 96 hrs by XTT assay; format: functional, cell-based
[7] = Drug metabolism in human WM266.4 cells assessed as chlorambucil after 48 hrs by LC-MS analysis; format: ADME, cell-based; settings: wm 266-4, 48 h
[8] = test system: WM 266-4; test: Induction of apoptosis in human WM266.4 cells assessed as live cells at 10 uM after 2 hrs by Annexin V-FITC/propidium iodide staining based flow cytometry (reference value: 94.7%); format: functional
[9] = test system: WM 266-4; test: Induction of apoptosis in human WM266.4 cells assessed as necrotic cells at 10 uM after 2 hrs by Annexin V-FITC/propidium iodide staining based flow cytometry (reference value: 1.22%); format: functional
[10] = test system: WM 266-4; test: Induction of apoptosis in human WM266.4 cells assessed as early apoptotic cells at 10 uM after 8 hrs by Annexin V-FITC/propidium iodide staining based flow cytometry (reference value: 2.64%); format: functional
[11] = test system: WM 266-4; test: Induction of apoptosis in human WM266.4 cells assessed as late apoptotic cells at 10 uM after 8 hrs by Annexin V-FITC/propidium iodide staining based flow cytometry (reference value: 1.41%); format: functional
[12] = test system: WM 266-4; test: Induction of apoptosis in human WM266.4 cells assessed as early apoptotic cells at 10 uM after 24 hrs by Annexin V-FITC/propidium iodide staining based flow cytometry (reference value: 2.64%); format: functional
[13] = test system: WM 266-4; test: Induction of apoptosis in human WM266.4 cells assessed as late apoptotic cells at 10 uM after 24 hrs by Annexin V-FITC/propidium iodide staining based flow cytometry (reference value: 1.41%); format: functional
[14] = test system: WM 266-4; test: Induction of apoptosis in human WM266.4 cells assessed as early apoptotic cells at 25 uM after 2 hrs by Annexin V-FITC/propidium iodide staining based flow cytometry (reference value: 2.64%); format: functional
[15] = test system: WM 266-4; test: Induction of apoptosis in human WM266.4 cells assessed as live cells at 25 uM after 8 hrs by Annexin V-FITC/propidium iodide staining based flow cytometry (reference value: 94.7%); format: functional
[16] = test system: WM 266-4; test: Induction of apoptosis in human WM266.4 cells assessed as late apoptotic cells at 25 uM after 8 hrs by Annexin V-FITC/propidium iodide staining based flow cytometry (reference value: 1.41%); format: functional
[17] = test system: WM 266-4; test: Induction of apoptosis in human WM266.4 cells assessed as necrotic cells at 25 uM after 8 hrs by Annexin V-FITC/propidium iodide staining based flow cytometry (reference value: 1.22%); format: functional
[18] = test system: WM 266-4; test: Induction of apoptosis in human WM266.4 cells assessed as late apoptotic cells at 25 uM after 24 hrs by Annexin V-FITC/propidium iodide staining based flow cytometry (reference value: 1.41%); format: functional
[19] = test system: WM 266-4; test: Induction of necrosis in human WM266.4 cells at 5 to 25 uM after 16 hrs by Annexin V-FITC/propidium iodide staining based fluorescence microscopic method; format: functional, cell-based
[20] = test system: WM 266-4; test: Cell cycle arrest in human WM266.4 cells assessed as accumulation at G1 phase at 10 uM after 2 hrs by propidium iodide staining based flow cytometry (reference value: 59%); format: functional
[21] = test system: WM 266-4; test: Cell cycle arrest in human WM266.4 cells assessed as accumulation at S phase at 10 uM after 8 hrs by propidium iodide staining based flow cytometry (reference value: 27%); format: functional
[22] = test system: WM 266-4; test: Cell cycle arrest in human WM266.4 cells assessed as accumulation at G2 phase at 10 uM after 8 hrs by propidium iodide staining based flow cytometry (reference value: 11%); format: functional
[23] = test system: WM 266-4; test: Cell cycle arrest in human WM266.4 cells assessed as accumulation at G2 phase at 10 uM after 24 hrs by propidium iodide staining based flow cytometry (reference value: 11%); format: functional
[24] = molecular target: DNA topoisomerase 2-alpha (Homo sapiens) (UniProt P11388); test: Inhibition of human topoisomerase-2alpha assessed as reduction in enzyme-mediated decatenation at 25 uM using kinetoplast DNA as substrate after 25 mins by ethidium bromide staining based agarose gel electrophoresis method
DNA topoisomerase 2-alpha (Homo sapiens), sequence (P11388 whole entry): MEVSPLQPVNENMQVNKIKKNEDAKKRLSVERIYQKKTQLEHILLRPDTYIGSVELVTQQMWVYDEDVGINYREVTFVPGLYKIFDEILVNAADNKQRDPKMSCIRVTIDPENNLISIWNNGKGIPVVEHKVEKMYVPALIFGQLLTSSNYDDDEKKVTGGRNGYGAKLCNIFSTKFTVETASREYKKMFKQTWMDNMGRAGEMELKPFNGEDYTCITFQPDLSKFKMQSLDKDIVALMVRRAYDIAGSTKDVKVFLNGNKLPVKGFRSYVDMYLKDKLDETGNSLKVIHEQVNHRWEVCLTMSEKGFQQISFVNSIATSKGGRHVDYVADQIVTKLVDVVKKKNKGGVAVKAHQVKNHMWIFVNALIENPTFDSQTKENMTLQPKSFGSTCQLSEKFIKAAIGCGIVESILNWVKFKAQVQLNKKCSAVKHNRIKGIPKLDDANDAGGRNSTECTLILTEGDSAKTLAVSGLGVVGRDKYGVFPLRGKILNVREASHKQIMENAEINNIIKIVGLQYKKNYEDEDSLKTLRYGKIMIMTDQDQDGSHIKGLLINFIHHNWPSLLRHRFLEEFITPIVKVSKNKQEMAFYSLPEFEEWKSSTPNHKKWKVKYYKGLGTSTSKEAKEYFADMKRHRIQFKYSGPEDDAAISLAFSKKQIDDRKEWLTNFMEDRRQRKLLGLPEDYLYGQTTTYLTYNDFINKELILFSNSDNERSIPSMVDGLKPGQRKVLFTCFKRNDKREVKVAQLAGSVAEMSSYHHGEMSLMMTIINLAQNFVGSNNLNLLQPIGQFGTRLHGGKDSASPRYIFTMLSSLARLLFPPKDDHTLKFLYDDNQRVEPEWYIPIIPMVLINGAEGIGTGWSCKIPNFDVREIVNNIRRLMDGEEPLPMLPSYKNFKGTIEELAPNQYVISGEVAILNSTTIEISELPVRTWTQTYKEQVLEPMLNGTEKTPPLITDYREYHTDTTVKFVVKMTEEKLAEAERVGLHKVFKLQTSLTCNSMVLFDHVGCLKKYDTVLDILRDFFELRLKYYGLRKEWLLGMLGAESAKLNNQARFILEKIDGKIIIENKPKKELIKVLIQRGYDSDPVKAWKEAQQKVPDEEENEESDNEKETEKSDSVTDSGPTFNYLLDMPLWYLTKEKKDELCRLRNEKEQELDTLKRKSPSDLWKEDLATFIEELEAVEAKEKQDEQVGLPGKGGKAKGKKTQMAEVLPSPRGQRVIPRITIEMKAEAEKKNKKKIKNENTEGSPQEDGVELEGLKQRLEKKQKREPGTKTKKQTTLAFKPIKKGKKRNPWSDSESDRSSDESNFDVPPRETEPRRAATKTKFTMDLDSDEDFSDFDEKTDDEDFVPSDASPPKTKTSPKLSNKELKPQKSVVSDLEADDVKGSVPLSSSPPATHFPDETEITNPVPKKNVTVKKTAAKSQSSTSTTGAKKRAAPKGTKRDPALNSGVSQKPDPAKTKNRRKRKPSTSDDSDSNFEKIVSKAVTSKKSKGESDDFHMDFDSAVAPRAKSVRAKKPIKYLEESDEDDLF

[25] = test system: Mus musculus; test: Toxicity in athymic Foxn1 nu mouse assessed as effect on body weight at 10 mg/kg, ip administered once daily for 3 days followed by resting period of 4 days repeated for 4 weeks; format: organism-based; settings: in vivo
[26] = test system: Mus musculus; test: Toxicity in athymic Foxn1 nu mouse assessed as abnormal physiological changes at 10 mg/kg, ip administered once daily for 3 days followed by resting period of 4 days repeated for 4 weeks; format: organism-based; settings: in vivo
[27] = test system: WM 266-4; test: Antitumor activity against human WM266.4 cells xenografted in athymic Foxn1 nu mouse assessed as tumor growth inhibition at 10 mg/kg, ip administered once daily for 3 days followed by resting period of 4 days repeated for 4 weeks starting from 5 days post tumor inoculation measured on day 21 relative to control; format: functional; settings: WM 266-4, ip, read-out: TGI
[28] = test system: WM 266-4; test: Antitumor activity against human WM266.4 cells xenografted in athymic Foxn1 nu mouse assessed as tumor growth inhibition at 25 mg/kg, ip administered once daily for 3 days followed by resting period of 4 days repeated for 4 weeks starting from 5 days post tumor inoculation measured on day 21 relative to control; format: functional; settings: WM 266-4, ip, read-out: TGI
[29] = test system: WM 266-4; test: Antitumor activity against human WM266.4 cells xenografted in athymic Foxn1 nu mouse assessed as tumor growth inhibition at 10 mg/kg, ip administered once daily for 7 days followed by resting period of 2 days repeated for 4 weeks starting from 5 days post tumor inoculation measured on day 21 relative to control; format: functional; settings: WM 266-4, ip, read-out: TGI
[30] = test system: WM 266-4; test: Antitumor activity against human WM266.4 cells xenografted in athymic Foxn1 nu mouse assessed as tumor growth inhibition at 10 mg/kg, ip administered once daily for 3 days followed by resting period of 4 days repeated for 4 weeks starting from 5 days post tumor inoculation measured on day 19; format: functional, organism-based
[31] = test system: WM 266-4; test: Antitumor activity against human WM266.4 cells xenografted in athymic Foxn1 nu mouse assessed as tumor growth inhibition at 10 mg/kg, ip administered once daily for 7 days followed by resting period of 2 days repeated for 4 weeks starting from 5 days post tumor inoculation measured on day 19; format: functional, organism-based
[32] = test system: WM 266-4; test: Antitumor activity against human WM266.4 cells xenografted in athymic Foxn1 nu mouse assessed as increase in 50% survival of mouse at 10 mg/kg, ip administered once daily for 7 days followed by resting period of 2 days repeated for 4 weeks starting from 5 days post tumor inoculation relative to control; format: functional
[33] = test system: WM 266-4; test: Antitumor activity against human WM266.4 cells xenografted in athymic Foxn1 nu mouse assessed as mouse survival at 10 mg/kg, ip administered once daily for 3 days followed by resting period of 4 days repeated for 4 weeks starting from 5 days post tumor inoculation relative to control; format: functional; settings: WM 266-4, ip

Question: Which results are given for `CN(C)CCN1C(=O)c2cccc3cc(NC(=O)CCCc4ccc(N(CCCl)CCCl)cc4)cc(c23)C1=O.O=C(O)C(F)(F)F`?
Answer: GI50 [1]: 7.1 µM; GI50 [2]: 3.1 µM; GI50 [3]: 8.8 µM; GI50 [4]: 7.5 µM; GI50 [5]: 6.8 µM; growth inhibition (GI) [6]: inactive; Drug metabolism [7]: Metabolite_Notdetected; Activity [8]: 86.9%; Activity [9]: 6.58%; Activity [10]: 6.66%; Activity [11]: 1.59%; Activity [12]: 3.9%; Activity [13]: 1.29%; Activity [14]: 6.79%; Activity [15]: 61.1%; Activity [16]: 5.47%; Activity [17]: 27.9%; Activity [18]: 19.8%; Activity [19]: Active; Activity [20]: 39%; Activity [21]: 46%; Activity [22]: 17%; Activity [23]: 24%; inhibition [24]: Active; Activity [25]: Non-Toxic; Activity [26]: Non-Toxic; inhibition in vivo at 10 mg/kg [27]: 40%; inhibition in vivo at 25 mg/kg [28]: 46%; inhibition in vivo at 10 mg/kg [29]: 40%; TGI [30]: Active; TGI [31]: Active; Activity [32]: 24%; survival at 10 mg/kg [33]: 60%
